Measurements taken from patent publication US5229116A, “Administration of pharmaceutical agents” (priority 1989, dated 1993).

Test: In vivo pharmacokinetic studies of dihydropyridines given orally with water, grapefruit juice or orange juice (plasma concentration, GC analysis)
Design: species or system human (healthy subjects, hypertensive patients)
Settings: human, po, mean; for AUC(0-inf): zero to infinity
Protocol: Hypertensive patients and healthy volunteers were given commercially available formulations of dihydropyridines in the morning after an overnight fast. The tablets were taken either with water, orange juice, or, as a source of flavonoids, 200 ml grapefruit juice. This contains about 150 mg of flavonoids, either as aglycones or glycosides.
The protocols for the five studies are shown on Table 2.
Blood samples for the analysis of the dihydropyridine and the first metabolite were drawn before and at frequent intervals after dose via an indwelling antecubital cannula. Samples were centrifuged and the plasma frozen (-20° C.) until analysis.
The maximum plasma concentration, Cmax, and the corresponding time to reach peak concentration, tmax, were recorded from the individual plasma concentration time curves of the dihydropyridine and its first metabolite. The area from zero to infinity was calculated adding the residual area to the area from zero to last determinable plasma concentration value by using the slope of the log plasma concentration time curve in the 3 to 8 hour interval after dose.

[1] = plasma, 10 mg, nitrendipine 10 mg tablets, healthy subjects, n = 3, grapefruit juice
[2] = plasma, 10 mg, nitrendipine 10 mg tablets, healthy subjects, n = 3, water
[3] = plasma, felodipine ER tablets, healthy subjects, n = 9, grapefruit juice
[4] = plasma, felodipine ER tablets, healthy subjects, n = 9, water
[5] = plasma, felodipine plain tablets, healthy subjects, n = 9, grapefruit juice
[6] = plasma, felodipine plain tablets, healthy subjects, n = 9, water
[7] = plasma, felodipine plain tablets, patients, n = 6, grapefruit juice
[8] = plasma, felodipine plain tablets, patients, n = 6, orange juice
[9] = plasma, felodipine plain tablets, patients, n = 6, water

Structure (SMILES): CCOC(=O)C1=C(C)NC(C)=C(C(=O)OC)C1c1cccc([N+](=O)[O-])c1 (stereo not drawn) [Nitrendipine]
- Tmax (in vivo, 10 mg, nitrendipine 10 mg tablets, healthy subjects, n = 3, grapefruit juice): 1.3 ± 0.5 h
- Tmax (in vivo, 10 mg, nitrendipine 10 mg tablets, healthy subjects, n = 3, water): 1.5 h
- Cmax [1]: 8.9 ± 4.8 nM
- AUC(0-inf) [1]: 0.035 ± 0.0195 µM·h
- Cmax [2]: 3.7 ± 1.8 nM
- AUC(0-inf) [2]: 0.0151 ± 0.0058 µM·h

Structure (SMILES): CCOC(=O)C1=C(C)NC(C)=C(C(=O)OC)C1c1cccc(Cl)c1Cl (stereo not drawn) [Felodipine]
- Cmax [3]: 8.9 ± 3.3 nM
- Tmax [3]: 3.2 ± 0.8 h
- AUC(0-inf) [3]: 0.0478 ± 0.0157 µM·h
- Cmax [4]: 3.4 ± 1.6 nM
- Tmax [4]: 3.4 ± 0.9 h
- AUC(0-inf) [4]: 0.0274 ± 0.0123 µM·h
- Cmax [5]: 16.3 ± 7.1 nM
- Tmax [5]: 2.1 ± 0.9 h
- AUC(0-inf) [5]: 0.065 ± 0.0263 µM·h
- Cmax [6]: 6.6 ± 3.6 nM
- Tmax [6]: 1.3 ± 0.6 h
- AUC(0-inf) [6]: 0.0228 ± 0.0106 µM·h
- Cmax [7]: 28.7 ± 7.6 nM
- Tmax [7]: 2.1 ± 0.5 h
- AUC(0-inf) [7]: 0.121 ± 0.045 µM·h
- Cmax [8]: 16.4 ± 7.8 nM
- Tmax [8]: 1.9 ± 0.1 h
- AUC(0-inf) [8]: 0.0514 ± 0.0222 µM·h
- Cmax [9]: 13.2 ± 5 nM
- Tmax [9]: 1.1 ± 0.5 h
- AUC(0-inf) [9]: 0.0484 ± 0.0237 µM·h
